The values that follow come from publication PMC9336311 (Cell reports, 2022).

The target in test [1] is CaMKII kinase domain (Homo sapiens, UniProt Q9UQM7). Kind of test: Coupled kinase assay with Syntide-2 as substrate. It is filed as biochemical. To be noted: saturating GluN2B S1303D or high levels of CaMKIIN.
The target of test [2] is CaMKII kinase domain (Homo sapiens, UniProt Q9UQM7, D135N). Kind of test: Fluorescence polarization competition assay against GluN2B. Format: binding. To be noted: FP competition, up to low millimolar concentrations.
Test [3] deals with CaMKII kinase domain (D135N) (Homo sapiens, UniProt Q9UQM7, D135N). Kind of test: ITC binding to D135N CaMKII kinase domain. To be noted: protein/peptide concentrations high enough to characterize a Kd of several hundred micromolar.
CaMKII kinase domain (D135N), sequence (Q9UQM7 7-274 D135N): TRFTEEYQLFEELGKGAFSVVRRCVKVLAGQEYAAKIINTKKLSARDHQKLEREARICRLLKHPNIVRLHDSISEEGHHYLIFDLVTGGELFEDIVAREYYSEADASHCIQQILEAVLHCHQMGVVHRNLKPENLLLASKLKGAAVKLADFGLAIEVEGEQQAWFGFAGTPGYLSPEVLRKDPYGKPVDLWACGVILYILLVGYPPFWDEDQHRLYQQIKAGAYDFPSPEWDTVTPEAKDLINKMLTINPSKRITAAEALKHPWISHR

CaMKII kinase domain (Homo sapiens, UniProt Q9UQM7), sequence (Q9UQM7 7-274): as the sequence (Q9UQM7 7-274 D135N) above, with N129D counted along it
CaMKII kinase domain (Homo sapiens, UniProt Q9UQM7, D135N), sequence (Q9UQM7 7-274 D135N): as the sequence (Q9UQM7 7-274 D135N) above

On to “MSEILPYGEDKMGRFGADPEGSDLSFSCRLQDTNSFFAGNQAKRPPKLGQIGRAKRVVIEDDRIDDVLKGMGEKPPSGV [CaMKIIN]”, for which, at CaMKII kinase domain [1], the “effect on Syntide-2 phosphorylation” value is recorded as “completely inhibit”.
With PLARTLSVAGLPGKK [Syntide-2], the “competition with GluN2B peptide” value at CaMKII kinase domain [2] is reported as “could not be competed off”. Moreover, the “binding in ITC” value in test [3] is on record as “did not see any appreciable binding”.
